Key:
RT112/84 = assay: Cellular activity test (Cell titer-Glo), RT112/84; assay type: cell-based; conditions: Homo sapiens, RT112/84, bladder cancer cell with abnormal FGFR, 72 h, read-out: Inhibitory activity against cells (IC50) RT112/84
Source text: (§1) Experimental Example 2: Celluar Activity Test of the Compounds of the Present Invention
(§2) Hep3B is a cell with abnormal FGFR in hepatocellular carcinoma RT112/84 is a cell with abnormal FGFR in bladder cancer DMS114 is a cell with abnormal FGFR in small cell lung cancer AN3CA is a cell with abnormal FGFR in endometrial cancer SNU-16 is a cell with abnormal FGFR in gastric cancer
(§3) Test substance: The compounds of the present invention, the structures of which are shown above.
(§4) Test instrument: The Espire multi-function microplate reader.
(§5) Each cell line was seeded into a 96-well plate, and adherent cultured overnight. Then, the compounds at different concentrations (12 dose groups, 3× DMSO serial dilutions) were added to a final concentration of 0.17-30000 nM, with the final content of DMSO of 5‰. The negative control well was medium containing 5‰ DMSO. After incubation at 37° C., 5% CO2, 95% humidity for 72 h, the cultures would be test. 30 μL of Cell titer-Glo reagent was added to each well and incubated for 30 min at room temperature. The final data were read by Espire microplate reader.

SNU-16 = assay: Cellular activity test (Cell titer-Glo), SNU-16; assay type: cell-based; conditions: Homo sapiens, SNU-16, gastric cancer cell with abnormal FGFR, 72 h, read-out: Inhibitory activity against cells (IC50) SNU-16
Source text: as §1, §2, §3, §4, §5

Hep3B = assay: Cellular activity test (Cell titer-Glo), Hep3B; assay type: cell-based; conditions: Homo sapiens, hepatocellular carcinoma cell with abnormal FGFR, 72 h, read-out: Inhibitory activity against cells (IC50) Hep3B
Source text: as §1, §2, §3, §4, §5

FGFR1 = FGFR1 (Homo sapiens, UniProt P11362); assay: Enzymatic activity test (LabChip EZ Reader II / Caliper), FGFR1; assay type: biochemical; conditions: FGFR1(h), FAM-labelled polypeptide substrate and ATP, 30 min incubation; read-out: Inhibitory activity against FGFR (IC50) FGFR1
Chain of FGFR1 (P11362 22-822): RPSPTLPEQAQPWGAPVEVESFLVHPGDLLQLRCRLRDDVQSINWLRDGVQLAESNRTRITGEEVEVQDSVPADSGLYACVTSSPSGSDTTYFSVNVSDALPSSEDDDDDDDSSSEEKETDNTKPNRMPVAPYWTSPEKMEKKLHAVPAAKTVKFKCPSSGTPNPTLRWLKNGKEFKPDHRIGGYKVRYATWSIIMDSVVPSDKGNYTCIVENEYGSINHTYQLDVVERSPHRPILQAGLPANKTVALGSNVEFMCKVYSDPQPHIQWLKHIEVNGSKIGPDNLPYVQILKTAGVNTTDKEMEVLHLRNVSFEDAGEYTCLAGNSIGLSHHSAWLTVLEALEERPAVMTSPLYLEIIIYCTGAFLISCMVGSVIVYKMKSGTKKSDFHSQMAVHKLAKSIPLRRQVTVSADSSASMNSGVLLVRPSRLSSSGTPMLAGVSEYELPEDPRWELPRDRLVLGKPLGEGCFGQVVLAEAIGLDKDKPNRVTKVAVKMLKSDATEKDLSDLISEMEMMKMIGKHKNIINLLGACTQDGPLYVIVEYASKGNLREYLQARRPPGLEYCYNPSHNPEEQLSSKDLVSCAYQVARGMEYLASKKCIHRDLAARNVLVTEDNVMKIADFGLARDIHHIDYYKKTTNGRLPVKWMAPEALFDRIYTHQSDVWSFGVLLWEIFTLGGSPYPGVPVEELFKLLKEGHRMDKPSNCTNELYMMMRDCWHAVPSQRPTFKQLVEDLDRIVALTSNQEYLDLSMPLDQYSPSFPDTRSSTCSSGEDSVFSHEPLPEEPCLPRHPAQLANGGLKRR
Procedure: (§6) Experimental Example 1: Enzymatic Activity Test of the Compounds of the Present Invention
as §3
(§7) Test Instrument: The LabChip EZ Reader II drug screening platform.
(§8) 1. Preparation for compound plate a) 96-well plates, 10 dose groups, 3-fold serial dilutions, added DMSO to each well, maximal concentration of 500 μM. b) 384-well plates, diluted with 1× kinase buffer (50 mM HEPES, pH 7.5; 0.0015% Brij-35; 2 mM DTT), each well containing 5× compound dissolved in 5 μL of 10% DMSO. The negative control well was 5 μL of 1× kinase buffer containing 10% DMSO. 2. Experimental procedure
(§9) […] in 1× kinase buffer were reacted with 2.5× enzyme solution at room temperature for 10 min, and then the FAM-labelled polypeptide substrate and ATP were added to initiate reaction. After incubation for 30 min, 25 μL of terminal solution (100 mM HEPES, pH 7.5; 0.015% Brij-35; 0.2% Coating Reagent #3; 50 mM EDTA) was added to terminate the reaction, and the final data were read by Caliper.

FGFR2 = FGFR2 (Homo sapiens, UniProt P21802); assay: Enzymatic activity test (LabChip EZ Reader II / Caliper), FGFR2; assay type: biochemical; conditions: FGFR2(h), FAM-labelled polypeptide substrate and ATP, 30 min incubation; read-out: Inhibitory activity against FGFR (IC50) FGFR2
Chain of FGFR2 (P21802 22-821): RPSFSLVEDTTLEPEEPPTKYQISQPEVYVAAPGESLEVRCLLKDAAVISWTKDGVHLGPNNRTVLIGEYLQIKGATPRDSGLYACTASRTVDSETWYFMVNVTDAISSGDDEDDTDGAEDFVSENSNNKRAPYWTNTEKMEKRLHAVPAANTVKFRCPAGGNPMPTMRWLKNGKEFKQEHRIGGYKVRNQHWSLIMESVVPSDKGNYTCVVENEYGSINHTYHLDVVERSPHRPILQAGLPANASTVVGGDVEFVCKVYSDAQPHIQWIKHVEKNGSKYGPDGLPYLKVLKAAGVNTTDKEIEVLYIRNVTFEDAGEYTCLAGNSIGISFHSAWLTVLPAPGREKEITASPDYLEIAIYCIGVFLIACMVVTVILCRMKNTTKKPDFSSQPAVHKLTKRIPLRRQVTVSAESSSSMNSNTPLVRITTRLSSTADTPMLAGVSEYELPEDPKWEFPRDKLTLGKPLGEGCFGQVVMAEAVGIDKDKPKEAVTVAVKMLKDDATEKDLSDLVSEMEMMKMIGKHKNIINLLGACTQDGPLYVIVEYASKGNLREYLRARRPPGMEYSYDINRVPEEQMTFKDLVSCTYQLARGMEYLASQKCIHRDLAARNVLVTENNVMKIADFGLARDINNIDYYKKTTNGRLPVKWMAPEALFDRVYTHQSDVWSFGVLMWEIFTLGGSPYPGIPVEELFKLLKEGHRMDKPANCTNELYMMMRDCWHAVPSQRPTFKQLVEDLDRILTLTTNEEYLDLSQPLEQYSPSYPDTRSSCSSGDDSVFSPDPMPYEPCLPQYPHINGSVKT
Procedure: as §6, §3, §7, §8, §9

AN3CA = assay: Cellular activity test (Cell titer-Glo), AN3CA; assay type: cell-based; conditions: Homo sapiens, AN3-CA, endometrial cancer cell with abnormal FGFR, 72 h, read-out: Inhibitory activity against cells (IC50) AN3CA
Source text: as §1, §2, §3, §4, §5

FGFR4 = FGFR4 (Homo sapiens, UniProt P22455); assay: Enzymatic activity test (LabChip EZ Reader II / Caliper), FGFR4; assay type: biochemical; conditions: FGFR4(h), FAM-labelled polypeptide substrate and ATP, 30 min incubation; read-out: Inhibitory activity against FGFR (IC50) FGFR4
Chain of FGFR4 (P22455 22-802): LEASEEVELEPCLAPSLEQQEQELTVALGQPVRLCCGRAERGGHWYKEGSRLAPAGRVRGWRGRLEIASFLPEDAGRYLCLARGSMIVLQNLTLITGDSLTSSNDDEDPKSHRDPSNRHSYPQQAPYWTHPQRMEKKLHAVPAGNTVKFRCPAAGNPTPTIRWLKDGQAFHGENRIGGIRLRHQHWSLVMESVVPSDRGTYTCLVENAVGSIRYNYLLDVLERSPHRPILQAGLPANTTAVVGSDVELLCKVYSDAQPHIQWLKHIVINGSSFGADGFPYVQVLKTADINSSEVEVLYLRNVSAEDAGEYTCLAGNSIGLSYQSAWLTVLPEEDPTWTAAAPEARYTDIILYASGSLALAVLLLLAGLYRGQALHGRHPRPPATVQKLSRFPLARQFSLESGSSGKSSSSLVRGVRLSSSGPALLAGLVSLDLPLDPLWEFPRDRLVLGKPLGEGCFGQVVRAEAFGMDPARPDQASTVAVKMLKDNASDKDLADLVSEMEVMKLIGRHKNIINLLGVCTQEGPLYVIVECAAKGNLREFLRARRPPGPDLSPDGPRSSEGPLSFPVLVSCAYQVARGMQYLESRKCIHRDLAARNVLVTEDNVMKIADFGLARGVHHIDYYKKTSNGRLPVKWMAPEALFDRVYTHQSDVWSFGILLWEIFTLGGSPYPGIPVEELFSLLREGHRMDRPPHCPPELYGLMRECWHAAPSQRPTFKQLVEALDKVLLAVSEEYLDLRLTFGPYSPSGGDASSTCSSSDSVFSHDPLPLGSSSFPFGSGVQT
Procedure: as §6, §3, §7, §8, §9

FGFR3 = FGFR3 (Homo sapiens, UniProt P22607); assay: Enzymatic activity test (LabChip EZ Reader II / Caliper), FGFR3; assay type: biochemical; conditions: FGFR3(h), FAM-labelled polypeptide substrate and ATP, 30 min incubation; read-out: Inhibitory activity against FGFR (IC50) FGFR3
Chain of FGFR3 (P22607 23-806): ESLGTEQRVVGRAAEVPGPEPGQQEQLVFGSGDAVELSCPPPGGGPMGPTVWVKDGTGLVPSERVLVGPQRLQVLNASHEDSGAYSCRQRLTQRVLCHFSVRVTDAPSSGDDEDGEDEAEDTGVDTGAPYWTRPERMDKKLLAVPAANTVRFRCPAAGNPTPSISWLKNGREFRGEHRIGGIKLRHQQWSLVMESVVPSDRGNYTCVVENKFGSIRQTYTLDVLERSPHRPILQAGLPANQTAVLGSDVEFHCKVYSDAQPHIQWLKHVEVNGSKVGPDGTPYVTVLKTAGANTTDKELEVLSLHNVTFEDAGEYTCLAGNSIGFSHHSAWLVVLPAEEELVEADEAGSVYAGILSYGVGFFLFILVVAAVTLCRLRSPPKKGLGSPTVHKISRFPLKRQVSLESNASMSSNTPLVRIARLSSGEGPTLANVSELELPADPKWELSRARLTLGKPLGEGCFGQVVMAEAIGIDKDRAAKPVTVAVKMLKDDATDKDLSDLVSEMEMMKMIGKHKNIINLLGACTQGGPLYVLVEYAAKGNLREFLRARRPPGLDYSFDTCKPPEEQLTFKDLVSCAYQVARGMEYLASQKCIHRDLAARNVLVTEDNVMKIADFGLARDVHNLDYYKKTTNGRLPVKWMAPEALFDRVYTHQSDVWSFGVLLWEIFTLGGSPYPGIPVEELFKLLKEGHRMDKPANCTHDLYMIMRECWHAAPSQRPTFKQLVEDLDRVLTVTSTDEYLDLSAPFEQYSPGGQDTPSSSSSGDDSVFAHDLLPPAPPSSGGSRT
Procedure: as §6, §3, §7, §8, §9

DMS114 = assay: Cellular activity test (Cell titer-Glo), DMS114; assay type: cell-based; conditions: Homo sapiens, DMS-114, DMS114, small cell lung cancer cell with abnormal FGFR, 72 h, read-out: Inhibitory activity against cells (IC50) DMS114
Source text: as §1, §2, §3, §4, §5

Structure (SMILES)	IC50 (RT112/84)	IC50 (SNU-16)	IC50 (Hep3B)	IC50 (FGFR1)	IC50 (FGFR2)	IC50 (AN3CA)	IC50 (FGFR4)	IC50 (FGFR3)	IC50 (DMS114)
C=CC(=O)N1C[C@@H](Nc2ncc3cc(-c4c(Cl)c(OC)cc(OC)c4Cl)ccc3n2)C[C@H]1CF [Compound 24, 1-((2S,4S)-4-((6-(2,6-dichloro-3,5-dimethoxyphenyl)quinazolin-2-yl)amino)-2-(fluoromethyl)pyrrolidin-1-yl)prop-2-en-1-one]	0.153 µM	0.048 µM	0.046 µM						
C=CC(=O)N1C[C@@H](Nc2ncc3cc(-c4c(Cl)c(OC)cc(OC)c4Cl)ccc3n2)C[C@H]1CO [Compound 22, 1-((2S,4S)-4-((6-(2,6-dichloro-3,5-dimethoxyphenyl)quinazolin-2-yl)amino)-2-(hydroxymethyl)pyrrolidin-1-yl)prop-2-en-1-one]	0.04 µM	0.011 µM	0.0322 µM	0.0046 µM	0.0044 µM	0.059 µM	0.101 µM	0.019 µM	0.025 µM
C=CC(=O)N1C[C@@H](Nc2ncc3cc(-c4c(Cl)c(OC)cc(OC)c4Cl)ccc3n2)C[C@@H]1CO [Compound 23]	0.05 µM	0.022 µM	0.026 µM			0.086 µM			0.031 µM
C=CC(=O)N1CC[C@H](Nc2ncc3cc(-c4c(Cl)c(OC)cc(OC)c4Cl)ccc3n2)C1 [Compound 5, (S)-1-(3-((6-(2,6-dichloro-3,5-dimethoxyphenyl)quinazolin-2-yl)amino)pyrrolidin-1-yl)propyl-2-en-1-one]	0.056 µM		0.153 µM	0.0054 µM	0.0055 µM		0.175 µM	0.018 µM	0.058 µM
C=CC(=O)N1CC2(CC(Nc3ncc4cc(-c5c(Cl)c(OC)cc(OC)c5Cl)ccc4n3)C2)C1 [Compound 65, 1-(6-((6-(2,6-dichloro-3,5-dimethoxyphenyl)quinazolin-2-yl)amino)-2-azaspiro[3.3]heptan-2-yl)prop-2-en-1-one]	0.161 µM	0.092 µM	0.066 µM						
C=CC(=O)N1C[C@@H](C)[C@H](Nc2ncc3cc(-c4c(Cl)c(OC)cc(OC)c4Cl)ccc3n2)C1 [Compound 20, 1-((3S,4R)-3-((6-(2,6-dichloro-3,5-dimethoxyphenyl)quinazolin-2-yl)amino)-4-methylpyrrolidin-1-yl)propyl-2-en-1-one]	0.077 µM		0.0502 µM	0.015 µM	0.015 µM		0.068 µM	0.034 µM	0.113 µM
